# Measured values from US20070254891A1, “Crystalline forms of 4-(2-fluorophenyl)-6-methyl-2-(piperazin-1-yl)thieno[2,3-d]pyrimidine” (Dynogen Pharmaceuticals, Inc., priority 2006, published 2007).
# Experiments:
# Type in all cases: physicochemical
# [1] = 10 week stability study at 40° C./75% RH and 60° C./75% RH, light and dark
# Description: (§1) Purity analysis was performed on an Agilent HP1100 system equipped with a diode array detector and using Chemstation V9 software. Gradient, Reverse Phase methods (duration approximately 40 minutes) were used in a HPLC1 system. A Thermo-Electron Corporation HyPurity C18 5 um 150×4.6 mm column was used at 25° C. Test samples were made-up of 0.2 mg/ml of the compound in acetonitrile:water (1:1 v/v). 10 μl of sample was injected into the column. The flow rate through the column was 1 ml/min and the detection wavelength, bandwidth was 254,8 nm. Phase A was 0.1% phosphoric acid in water and Phase B was 0.1% phosphoric acid in acetonitrile. The mobile phase timetable is shown below in Table 2.
# Samples of Form I and II were tested at 40° C./75% RH and 60° C./75% RH in both light and dark conditions for up to 10 weeks. As the samples were located in temperature/humidity control chambers, the exposure to light was limited to normal laboratory light conditions with artificial light and some winter daylight through the windows.
# Approximately 100 mg of each sample was weighed into plastic weighing boats and spread out to form an even thin layer for each of the temperature/humidity/light conditions, as shown in Table 6. The dark samples were protected from exposure to light by wrapping them in aluminum foil. The foil was pierced to allow exposure to humidity.
# Time points chosen for HPLC analysis during the stability study were T=0, 1, 2, 5 and 10 weeks. At 10 weeks, the samples were analyzed using XRPD, DSC and polarized light microscopy.
# [2] = Accelerated light stability study (Atlas Suntest CPS+ light box)
# Description: as §1
# Accelerated Light stability experiments were conducted using an Atlas Suntest CPS+light box. The light exposure was set to 550 W/m^2 and the run time was set to 168 hours (1 week). The chamber temperature and black standard temperature (which indicates how hot the test samples will become) were set to 25° C. The actual temperature in the sample chamber was 40° C.
# Form I and II were assessed using an Atlas Suntest CPS+ light box to determine the effect of their exposure to light over a period of 168 hours (1 week). The light exposure was set to 550 W/M^2. Samples were weighed into either open weighing boats covered by pyrex glass beakers, glass vials with open tops (no lid), or glass vials covered in Aluminum foil. In all instances, the material was spread out into an even, thin layer.
# [3] = Variable temperature XRPD (VT-XRPD); conditions: 25° C. to 245° C., then cooled to 30° C.
# Description: Samples run under ambient conditions were prepared as flat plate specimens using powder without grinding unless otherwise stated. Approximately 1-2 mg of the sample was lightly pressed on a glass slide to obtain a flat surface. Samples run under non-ambient conditions (VT-XRPD) were mounted on a silicon wafer with heat conducting compound. The sample was then heated to the appropriate temperature at about 20° C./minute and subsequently held isothermally for about 1 minute before data collection was initiated.
# Three samples were studied using variable temperature XRPD (VT-XRPD): Form I as received, substantially pure Form I as prepared in Example 3, and substantially pure Form II as prepared in Example 3. VT-XRPD studies were initially carried out on substantially pure Form I as prepared in Example 3 with measurements at 25° C., 50° C., 80° C., 150° C., 220° C., 225° C., 250° C. and cooling to 29° C. Prior to measurement of the last XRPD pattern, the material was crushed due to the growth of large crystals. An overlay of the XRPD patterns can be found in FIG. 4A.
# An experiment was also carried out on Form I as received, with measurements at 26° C., 50° C., 150° C., 200° C., 210° C., 220° C., 230° C. and cooling to 27° C. An overlay of the XRPD patterns can be found in FIG. 4B. […] (see peak at ˜14.7 2θ). […]
# [4] = Gravimetric vapor sorption (GVS)
# Description: GVS was used to determine the amount of water adsorbed by a sample. Briefly, samples were run on a Hiden IGASorp moisture sorption analyzer running CFRSorp software. Sample sizes were typically 10 mg. A moisture adsorption desorption isotherm was performed as outlined below in Table 3 (2 scans giving 1 complete cycle). Samples were loaded/unloaded at typical room humidity and temperature (40% RH, 25° C.). Samples were then analyzed by XRPD after GVS analysis, e.g., to determine whether any structural changes took place after adsorption of water. The standard isotherm was performed at 25° C. at 10% RH intervals over a 0-90% RH range.
structure (smiles),measurement,setting,value
"Cc1cc2c(-c3ccccc3F)nc(N3CCNCC3)nc2s1.Cl [Form II, 4-(2-fluorophenyl)-6-methyl-2-(piperazin-1-yl)thieno[2,3-d]pyrimidine hydrochloride]",Purity %,"[1]; 40° C./75% RH, Dark, 1 week",99.9%
same,Purity %,"[1]; 40° C./75% RH, Dark, 2 weeks",100%
same,Purity %,"[1]; 40° C./75% RH, Dark, 5 weeks",100%
same,Purity %,"[1]; 40° C./75% RH, Dark, 10 weeks, hydrochloride",100%
same,Purity %,"[1]; 40° C./75% RH, Light, 1 week",99.9%
same,Purity %,"[1]; 40° C./75% RH, Light, 2 weeks",100%
same,Purity %,"[1]; 40° C./75% RH, Light, 5 weeks, hydrochloride",99.9%
same,Purity %,"[1]; 40° C./75% RH, Light, 10 weeks, hydrochloride",99.9%
same,Purity %,"[1]; 60° C./75% RH, Dark, 1 week",99.9%
same,Purity %,"[1]; 60° C./75% RH, Dark, 2 weeks, hydrochloride",100%
same,Purity %,"[1]; 60° C./75% RH, Dark, 5 weeks",100%
same,Purity %,"[1]; 60° C./75% RH, Dark, 10 weeks, hydrochloride",99.9%
same,Purity %,"[1]; 60° C./75% RH, Light, 1 week",99.8%
same,Purity %,"[1]; 60° C./75% RH, Light, 2 weeks, hydrochloride",99.9%
same,Purity %,"[1]; 60° C./75% RH, Light, 5 weeks, hydrochloride",99.8%
same,Purity %,"[1]; 60° C./75% RH, Light, 10 weeks, hydrochloride",99.7%
same,Purity %,"[1]; time point 0 weeks, hydrochloride",99.9%
same,Stability as indicated by the HPLC data,"[1]; up to 10 weeks, 40° C./75% RH and 60° C./75% RH",stable to ambient light levels as well as elevated temperature and humidity
same,Rate of degradation relative to Form I,[2]; 1 week at elevated light levels,about half the rate of Form I
same,Purity after 1 week light exposure,[2]; 20 ml glass vial covered in Al foil with loose lid (control),99.9
same,Purity after 1 week light exposure,"[2]; 20 ml glass vial, 550 W/m^2, 168 hours, hydrochloride",90.7
same,HPLC purity after accelerated light study,"[2]; one week, FIGS. 6A/6B (open weighing boats), hydrochloride",88.3%
same,Purity after 1 week light exposure,"[2]; open weighing boat, 550 W/m^2, 168 hours, hydrochloride",88.3
same,Form on heating (VT-XRPD),[3],remained as Form II throughout the experiment
same,XRPD reanalysis after GVS,[4]; after one adsorption/desorption cycle,did not show any change
same,GVS weight increase,[4]; between 0 and 40% RH,1.4%
same,"GVS weight increase, equivalent water",[4]; between 0 and 40% RH,0.29 moles of water
same,"GVS weight increase, equivalent water",[4]; between 0 and 90% RH,0.39 moles of water
same,GVS total weight increase,"[4]; between 0 and 90% RH, single cycle, 25° C., hydrochloride",1.9%
